Laboratory results reported in paper PMC10209615, “Pharmacological inhibition of LSD1 suppresses growth of hepatocellular carcinoma by inducing GADD45B” (MedComm, 2023).

Legend:
[1] = molecular target: Truncated human LSD1 (residues 172–836) (Homo sapiens, UniProt O60341); experiment: Surface plasmon resonance (Biacore); type: binding; settings: 25°C, read-out: dissociation constant (KD)
Protocol: Briefly, the truncated LSD1 was cloned into a pET28a plasmid and expressed in Escherichia coli BL21(DE3) at 18°C (Novagen). The fusion protein was purified by the nickel charged nitrilotriacetic acid (Ni‐NTA, GE Healthcare) with buffer A (20 mM Tris‐HCl, pH 8.5, 10 mM imidazole, 500 mM NaCl, and 2 mM dithiothreitol DTT) and buffer B (20 mM Tris‐HCl, Ph 8.5, 500 mM imidazole, 500 mM NaCl, and 2 mM DTT). Then, LSD1 was digested overnight with Thrombin Protease (Sigma Aldrich) to remove His‐tag and dialyzed against buffer C (20 mM Tris‐HCl, pH 8.5, 150 mM NaCl, and 2mM DTT) overnight at 4°C. The next day, the target protein was applied to Ni‐NTA again to remove the uncleaved His‐tag protein. LSD1 without His‐tag was further purified by an S200 16/600 column (GE Healthcare) in buffer C. The quality of purified LSD1 was checked by sodium dodecyl sulphate‐polyacrylamide gel electrophoresis (SDS‐PAGE).[47]
LSD1 protein was immobilized on a CM5 sensor chip by the amine‐coupling method. […] The binding kinetics was analyzed using BIAevaluation software (version 4.1, Biacore).

nine HCC cell lines = experiment: CCK‐8 cell proliferation assay; type: cell-based; settings: Homo sapiens; post‐treatment for 144 h; read-out: half‐maximal inhibitory concentration (IC50), proliferation of HCC cell lines
Protocol: Cell viability was determined using Cell Counting Kit‐8 (CCK8; Dojindo) or 3‐(4, 5‐dimethylthiazol‐2‐yl)‐2,5‐diphenyltetrazoliumbromide (MTT, Sigma Aldrich) assay. […] Consequently, cell viability was determined using a microplate reader (Thermo Fisher) at 450 nm for CCK8 assay, or 570 nm for MTT assay, at different time points. The IC50 values and CI values were analyzed and calculated using GraphPad Prism 8 and CompuSyn (version 1.0; http://www.combosyn.com), respectively.

HCCLM3 = experiment: Cell proliferation assay; type: cell-based; settings: Homo sapiens, HCCLM3, 144 h
Protocol: (§1) Cell viability was determined using Cell Counting Kit‐8 (CCK8; Dojindo) or 3‐(4, 5‐dimethylthiazol‐2‐yl)‐2,5‐diphenyltetrazoliumbromide (MTT, Sigma Aldrich) assay. A selection of HCC cells was exposed to gradient concentration of ZY0511 for 96–144 h, or exposed to other LSD1 inhibitors including SP2509, GSK2879552, and ORY1001 for 144 h, or exposed to DTP3, which enhanced the apoptosis induction function of GADD45B for 96 h in combination therapy. Consequently, cell viability was determined using a microplate reader (Thermo Fisher) at 450 nm for CCK8 assay, or 570 nm for MTT assay, at different time points. The IC50 values and CI values were analyzed and calculated using GraphPad Prism 8 and CompuSyn (version 1.0; http://www.combosyn.com), respectively.

Hep3B = experiment: Cell proliferation assay; type: cell-based; settings: Homo sapiens, 144 h
Protocol: as §1

HepG2 = experiment: Cell proliferation assay; type: cell-based; settings: Homo sapiens, HepG2, 144 h
Protocol: as §1

HuH6 = experiment: Cell proliferation assay; type: cell-based; settings: Homo sapiens, HuH-6; HuH6, 144 h
Protocol: as §1

HuH7 = experiment: Cell proliferation assay; type: cell-based; settings: Homo sapiens, Huh-7; HuH7, 144 h
Protocol: as §1

JHH7 = experiment: Cell proliferation assay; type: cell-based; settings: Homo sapiens, JHH7, 144 h
Protocol: as §1

PLC/PRF/5 = experiment: Cell proliferation assay; type: cell-based; settings: Homo sapiens; PLC/PRF/5, 144 h
Protocol: as §1

QGY7701 = experiment: Cell proliferation assay; type: cell-based; settings: Homo sapiens, QGY7701, 144 h
Protocol: as §1

SK-Hep-1 = experiment: Cell proliferation assay; type: cell-based; settings: Homo sapiens, SK-HEP1; SK-Hep-1, 144 h
Protocol: as §1

Row | Structure (SMILES) | Kd [1] | IC50 (nine HCC cell lines) | IC50 (HCCLM3) | IC50 (Hep3B) | IC50 (HepG2) | IC50 (HuH6) | IC50 (HuH7) | IC50 (JHH7) | IC50 (PLC/PRF/5) | IC50 (QGY7701) | IC50 (SK-Hep-1)
1 | C/C(=N\NC(=O)c1cccc(S(=O)(=O)N2CCOCC2)c1)c1cc(Cl)ccc1O [SP2509] | 0.0198 µM | – | – | – | – | – | – | – | – | – | –
2 | O=C(O)c1ccc(CN2CCC(CN[C@@H]3C[C@H]3c3ccccc3)CC2)cc1 [GSK2879552] | – | ≥ 28.6 µM | > 100 µM | > 100 µM | > 100 µM | > 100 µM | > 100 µM | > 100 µM | > 100 µM | > 100 µM | > 100 µM
3 | N[C@H]1CC[C@H](N[C@@H]2C[C@H]2c2ccccc2)CC1 [ORY1001] | – | ≥ 28.6 µM | > 100 µM | 28.6 ± 6.72 µM | > 100 µM | 46.3 ± 1.39 µM | > 100 µM | 56.2 ± 9.07 µM | > 100 µM | > 100 µM | 35.8 ± 5.05 µM
